Columns and labels:
[1] = target: recombinant human GST-Syk (Homo sapiens (Human), UniProt P43405); experiment: Homogeneous Time-Resolved Fluorescence (HTRF) assay for the recombinant human Syk enzyme; format: biochemical; settings: 10-dose titration 10 μM to 0.508 nM; 25 μM ATP; values below lowest test concentration given as <0.508
Description: Assay 1: Homogeneous Time-Resolved Fluorescence (HTRF) Assay for the Recombinant Human Syk Enzyme A recombinant GST-hSyk fusion protein was used to measure potency of compounds to inhibit human Syk activity. The recombinant human GST-Syk (Carna Biosciences #08-176) (5 pM final concentration total protein) was incubated with various concentrations of the inhibitor diluted in DMSO (0.1% final concentration) for 10 minutes at room temperature in 15 mM Tris-HCl (pH 7.5), 0.01% Tween 20, 2 mM DTT in 384 well plate format. To initiate the reaction the biotinylated substrate peptide (250 nM final concentration) that contains the phosphorylation site for Syk was added with magnesium (5 mM final concentration) and ATP (25 μM final concentration). The final volume of the reaction was 10 μL. Phosphorylation of the peptide was allowed to proceed for 45′ at room temperature. To quench the reaction and detect the phosphorylated product, 2 nM of a Europium-anti-phosphotyrosine antibody (Perkin Elmer #AD0161) and 70 nM SA-APC (Perkin-Elmer #CR130-100) were added together in 15 mM Tris pH 7.5, 40 mM EDTA, 0.01% Tween 20. The final volume of the quenching solution was 10 μL. The resulting HTRF signal was measured after 30 minutes on a EnVision (Perkin-Elmer) reader using a time-resolved fluorescence protocol. […] Table A provides the IC50 values for representative compounds of the invention.

[2] = target: phosphorylated Syk enzyme (Homo sapiens (Human), UniProt P43405); experiment: Dissociation rate: enzyme-inhibitor dilution and activity recovery assay (TR-FRET); format: biochemical; settings: for recovery of Syk enzyme activity following dilution of the inhibitor:Syk complex (relative to the DMSO control): 100-fold dilution after 2 hours preincubation, FIG. 1 and FIG. 2
Description: Assay 2: Determination of the Dissociation Rate for Compound 1B
The dissociation rate (koff) of inhibitor:phosphorylated Syk complexes was examined using an enzyme-inhibitor dilution and activity recovery assay (R. A. Copeland, Enzymes: A practical introduction to structure, Mechanism, and Data Analysis Wiley-VCH 2000 and R. A. Copeland, Evaluation of Enzyme Inhibitors in Drug Discovery John Wiley & Sons, 2005). In this assay the recovery of kinase activity following dilution is measured using a time resolved fluorescence resonance energy transfer (TR-FRET) assay. The enzyme (at 100× the usual assay concentration) and inhibitor (at 20× the usual assay concentration) are preincubated for 2 hours to ensure equilibrium is reached. The samples are then diluted 100-fold into assay buffer (1× Kinase buffer [Invitrogen, Inc], 2 mM DTT, 0.05% BSA) containing a saturating amount of competitive substrate (1 mM ATP, to minimize rebinding of inhibitor) and peptide substrate (1 μM). The final nominal enzyme concentration following dilution is 4 pM. Samples (1 μL) are periodically withdrawn from the assay plate and transferred into 50 uL of detection/quench buffer (10 nM streptavidin labeled Dylite (Perkin Elmer) and 3 nM Eu-labeled antiphosphotyrosine antibody (pY20, Perkin Elmer). After 30 minutes incubation, the assay plate was read on the Envision reader (Perkin Elmer) using the following parameters: excitation wavelength of 320 nm, and dual emission monitoring at 616 and 665 nm. The delay time was 20 μs with a 200 μs window time. The time between flashes was 16600 μs and 20 flashes were used per well.
The recovery of enzyme activity is fit to the following equation (Morrison, J. F., and Walsh, C. T., (1988) Advances in Enzymology and Related Areas of Molecular Biology, 61 201-301): P=vst+[(vi−vs)/kobs][1−exp(−kobst)]+P0 where P is the quantity of phosphorylated peptide product produced, P0 is the concentration of phosphopeptide product present at time=0 (immediately following dilution), vs is the steady-state velocity, vi is the rate at time=0, and kobs is the rate constant describing activity recovery.

[3] = test system: allergic rhinitis; settings: dosed intranasally, phase I/II study; cited from earlier work
[4] = test system: allergic rhinitis; settings: phase II clinical trial; cited from earlier work

Question: For Cc1cc(Nc2nccc(C(F)(F)F)n2)cc(-c2cnc(C3(O)CCCc4cc(C(=O)O)ccc43)s2)c1 (racemic) [Compound 1, 5-hydroxy-5-(5-(3-methyl-5-((4-(trifluoromethyl)pyrimidin-2-yl)amino)phenyl)thiazol-2-yl)-5,6,7,8-tetrahydronaphthalene-2-carboxylic acid], which IC50 [1] is on record?
Answer: < 0.508 nM

Question: With Cc1cc(Nc2nccc(C(F)(F)F)n2)cc(-c2cnc([C@]3(O)CCCc4cc(C(=O)O)ccc43)s2)c1 [Compound 1A, (S)-5-hydroxy-5-(5-(3-methyl-5-((4-(trifluoromethyl)pyrimidin-2-yl)amino)phenyl)thiazol-2-yl)-5,6,7,8-tetrahydronaphthalene-2-carboxylic acid] as the molecule, how does the IC50 [1] read?
Answer: 1.6 nM

Question: With Cc1cc(Nc2nccc(C(F)(F)F)n2)cc(-c2cnc([C@@]3(O)CCCc4cc(C(=O)O)ccc43)s2)c1 [Compound 1B, (R)-5-hydroxy-5-(5-(3-methyl-5-((4-(trifluoromethyl)pyrimidin-2-yl)amino)phenyl)thiazol-2-yl)-5,6,7,8-tetrahydronaphthalene-2-carboxylic acid] as the molecule, how does the “dissociation rate of the inhibitor:phosphorylated Syk complex” value [2] read?
Answer: slow dissociation rate

Question: And the “recovery of Syk enzyme activity following dilution of the inhibitor:Syk complex (relative to the DMSO control)” value [2]?
Answer: only a fraction of the activity returned (relative to the DMSO control) after two hours

Question: What about the “half-life of the inhibitor:Syk complex” value ([2]; after 100-fold dilution into 1 mM ATP, FIG. 2) of the same molecule?
Answer: > 2 h

Question: What about the IC50 [1] of the same molecule?
Answer: < 0.508 nM

Question: With Cc1cc(Nc2nccc(C(C)C)n2)cc(-c2cnc([C@]3(O)CC[C@@H](C(=O)O)CC3)s2)c1 [Compound A, reference compound] as the molecule, how does the “recovery of Syk enzyme activity following dilution of the inhibitor:Syk complex (relative to the DMSO control)” value [2] read?
Answer: fully recovered (relative to the DMSO control) within the first five minutes after dilution

Question: What about the IC50 [1] of the same molecule?
Answer: < 0.508 nM

Question: With Oc1cccc(Nc2ncc(F)c(Nc3cccc(O)c3)n2)c1 [Compound R112] as the molecule, how does the PGD2 [3] read?
Answer: statistically significant decrease

Question: And the clinical safety [3]?
Answer: safe across a range of indicators

Question: What about the efficacy versus placebo [4] of the same molecule?
Answer: lack of efficacy

From patent US9624210B2, “Amino-pyrimidine-containing spleen tyrosine kinase (Syk) inhibitors” (Merck Sharp & Dohme Corp., priority 2012, dated 2017)
